Data: patent US10758527B2, “Opioid agonist antagonist combinations” (Alkermes Pharma Ireland Limited, priority 2011, dated 2020)

How the values were obtained:
[1] = system: dopamine efflux in the Nucleus Accumbens shell (NAc-sh); experiment: In vivo microdialysis of dopamine efflux in free-moving rats; details: antagonist given with Buprenorphine (0.1 mg/kg, SC)
Description: Experiments were conducted in rats to assess the ability of opioid antagonists to modulate buprenorphine-induced dopamine efflux in the Nucleus Accumbens shell (NAc-sh) region of the mesolimbic region of the brain. Male rats weighing 300-400 grams were used for all studies. To measure the efflux of dopamine in the NAc-sh an in vivo microdialysis method was utilized in free-moving rats. This method allows the sampling of extracellular cerebrospinal fluid (C SF) from specific brain regions of interest and measurement of neurotransmitter concentrations following the analysis of sampled dialysate with HPLC-EC.
Each rat underwent surgical implantation of microdialysis guide cannula (CMA 12, CMA Microdialysis) to guide the insertion of the microdialysis probe later on. Rats were anesthetized with a mixture of ketamine/xylazine (80/6 mg/kg IP) and placed in a stereotaxic apparatus. […] Guide cannula were capped with dummy probes until microdialysis probe insertion. On the day prior to experimentation (3-4 days post-surgery), animals were weighed to determine appropriate dose for test articles. A microdialysis probe (CMA 12, 2 mm membrane, CMA microdialysis) was then inserted through the guide cannula. […] Each sample was analyzed via HPLC-EC to determine neurotransmitter concentration of dopamine based upon a six-point standard curve.

Wistar-Kyoto (WKY) rats = experiment: Forced swim test (FST); details: WKY rats treated with Buprenorphine (0.1 mg/kg)
Description: In the “forced swim test” (FST) rats are placed in a tank of water, from which they cannot escape, on two successive days; 15 minutes on the first day and 5 minutes on the second day. While in the water they will swim, attempt to climb the container wall or become “immobile” floating in the water. The total time rats are immobility increases between the first and second day. […] At 24 h after the first swim, rats were retested for 5 minutes. Videos were scored manually for immobility time (in seconds) using a manual stop watch in 60 second intervals by a rater blinded to the treatment groups. A rat was judged to be immobile if it was making only movements necessary to keep its head above water.

SMILES | effect on buprenorphine-induced NAc-sh dopamine efflux [1] | immobility in forced swim test with increased concentrations of Compound-1 (Wistar-Kyoto (WKY) rats)
C=C1CC[C@@]2(O)[C@H]3Cc4ccc(O)c5c4[C@@]2(CCN3CC2CC2)[C@H]1O5 [Nalmefene, nalmefene, reference compound] | Reduction in the efflux of dopamine | –
C=C1CC[C@@]2(O)[C@H]3Cc4ccc(C(N)=O)c(O)c4[C@@]2(CCN3CC2CC2)C1 [Compound-10] | Reduction in the efflux of dopamine | –
O=C1CC[C@@]2(O)[C@H]3Cc4ccc(O)c5c4[C@@]2(CCN3CC2CC2)[C@H]1O5 [Naltrexone, naltrexone, reference compound] | Reduction in the efflux of dopamine | –
NC(=O)c1ccc2c(c1O)[C@]13CCN(CC4CC4)[C@H](C2)[C@]1(O)CCC(=O)C3 [Compound-1] | Reduction in the efflux of dopamine | Increase in immobility
